Laboratory results reported in US5446037A, “2-[(substituted) methylene]cephalosporin sulfones as antiinflammatory, antidegenerative and antithrombin agents” (Synphar Laboratories, Inc., priority 1993, dated 1995).

molecular target: T1, human leukocyte elastase (HLE) (Homo sapiens, UniProt P08246); test: Human leukocyte elastase (HLE) inhibition (MeO-Suc-Ala-Ala-Pro-Val-pNA hydrolysis, absorbance at 410 nm); format: biochemical; settings: Table I; pH 7.6, 30° C., 10 min pre-incubation, 10% (v/v) DMSO
T1 construct: purchased Elastin products, Missouri, U.S.A
T1 sequence (P08246 30-267): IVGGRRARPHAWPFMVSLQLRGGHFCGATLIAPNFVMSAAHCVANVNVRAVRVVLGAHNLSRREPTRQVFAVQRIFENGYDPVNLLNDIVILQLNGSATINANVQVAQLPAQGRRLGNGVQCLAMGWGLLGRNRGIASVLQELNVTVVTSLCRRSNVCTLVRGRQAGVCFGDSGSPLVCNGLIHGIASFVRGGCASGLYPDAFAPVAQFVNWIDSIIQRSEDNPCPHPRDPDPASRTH
Protocol: Determining HLE Inhibitory Activity
Human leukocyte elastase (HLE) obtained from Elastin products, Missouri, U.S.A., is dissolved in 0.05M sodium acetate containing 0.4M sodium chloride (pH 5.3) and stored at -20° C. Small aliquots of these stock solutions (1 μm) are used in the HLE assays.
Buffer: 0.01M Na, K-Phosphate, 0.5M NaCl (pH 7.6)
Substrate: 0,014M Meo-Suc-Ala-Ala-Pro-Val-pNA in DMSO
Inhibitor: various concentrations in DMSO
Enzyme: stock solution noted above
The stock solution of enzyme was equilibrated to 30° C. A cuvette containing buffer and inhibitor was equilibrated to 30° C. 10 μL of enzyme solution giving a rate of 0.04-0.05 AU/min in the absence of inhibitor, was mixed into the buffer/inhibitor solution and this mixture was incubated at 30° C. for 10 minutes. After this pre-incubation substrate was added to give a final concentration of […] and a final DMSO concentration of 10% (v/v). The rate of product formation, proportional to the change in absorbance at 410 nm, was monitored for two minutes following the addition of substrate. For a typical IC50 plot the rate was determined at 5-8 inhibitor concentrations (in duplicate) spanning 10-80% inhibition (in most cases). In most cases the data could be fit by linear least-squares and the IC50 determined from this plot.

SMILES	IC50 [nM]
CO[C@H]1C(=O)N2C(C(=O)OC(C)(C)C)=C(C)/C(=C\c3cn(C)nn3)S(=O)(=O)[C@H]12	100
CO[C@H]1C(=O)N2C(C(=O)OC(C)(C)C)=C(COC(C)=O)/C(=C\c3ccsc3)S(=O)(=O)[C@H]12 [drawing 29]	6.4
CO[C@H]1C(=O)N2C(C(=O)OC(C)(C)C)=C(COC(C)=O)/C(=C/c3cn(C)nn3)S(=O)(=O)[C@H]12	7.8
CO[C@H]1C(=O)N2C(C(=O)OC(C)(C)C)=C(COC(C)=O)/C(=C/c3cccnc3)S(=O)(=O)[C@H]12	7.2
CO[C@H]1C(=O)N2C(C(=O)OC(C)(C)C)=C(COC(C)=O)/C(=C\c3cn(C)nn3)S(=O)(=O)[C@H]12	9.2
CO[C@H]1C(=O)N2C(C(=O)OC(C)(C)C)=C(C)/C(=C/c3cccnc3)S(=O)(=O)[C@H]12	35
CO[C@H]1C(=O)N2C(C(=O)OC(C)(C)C)=C(COC(C)=O)/C(=C/c3ccccc3F)S(=O)(=O)[C@H]12 [drawing 21]	5.8

Second part, the compound after the results:

IC50 [nM]	SMILES
75	CO[C@H]1C(=O)N2C(C(=O)OC(C)(C)C)=C(C)/C(=C/c3cn(C)nn3)S(=O)(=O)[C@H]12
22	CO[C@H]1C(=O)N2C(C(=O)OC(C)(C)C)=C(COC(C)=O)/C(=C\c3ccco3)S(=O)(=O)[C@H]12 [drawing 25]
7.2	CO[C@H]1C(=O)N2C(C(=O)OC(C)(C)C)=C(COC(C)=O)/C(=C\c3cccnc3)S(=O)(=O)[C@H]12
6.4	CO[C@H]1C(=O)N2C(C(=O)OC(C)(C)C)=C(COC(C)=O)/C(=C/c3ccsc3)S(=O)(=O)[C@H]12
6	CO[C@H]1C(=O)N2C(C(=O)OC(C)(C)C)=C(COC(C)=O)/C(=C\c3ccccc3F)S(=O)(=O)[C@H]12 [drawing 22]

molecular target: T2, human plasma thrombin (Homo sapiens, UniProt P00734); test: Inhibition of thrombin (Chromozym TH spectrophotometric end-point assay, 410 nm); format: biochemical; settings: Table II, pH 8.6, room temperature, 10 min pre-incubation, 30 min incubation
T2 construct: purchased Boehringer, Montreal, Canada
Protocol: Determining the Inhibition of Thrombin
Lyophilized human plasma thrombin obtained from Boehringer, Montreal, Canada was dissolved in 0.5M Na, K-phosphate buffer (pH 7.0) and stored at +4° C.
Substrate: 0.5 mM Chromozym TH (tosyl-glycyl-prolylarginine-4-nitroanilide acetate) in DMSO
Inhibitor: 10 μM dissolved in DMSO
Temperature: room temperature (approx.).
A single inhibitor concentration (10 μM) was tested using a spectrophotometric end-point assay (1 ml final volume). Enzyme activity was monitored by formation of a product that absorbed light at 410 nm and an enzyme concentration which gave a rate of 0.01-0.02 AU/min was used. Enzyme and inhibitor were pre-incubated for 10 min in the final amounts of buffer and DMSO. The reaction was then started by the addition of substrate. After 30 min incubation the reaction was terminated by the addition of 10% SDS (0.1 ml) and the absorbance measured. Enzyme blanks were run concurrently to account for any background absorbance by the compound. Inhibition was calculated by the net A410 in the presence of inhibitor compared to that in the absence of inhibitor (DMSO controls).

inhibition at 10 µM [%]	SMILES
98.5	CO[C@H]1C(=O)N2C(C(=O)OC(C)(C)C)=C(COC(C)=O)/C(=C\c3ccccc3F)S(=O)(=O)[C@H]12 [drawing 37]
94.7	CO[C@H]1C(=O)N2C(C(=O)OC(C)(C)C)=C(COC(C)=O)/C(=C\c3ccco3)S(=O)(=O)[C@H]12 [drawing 34]
96.8	CO[C@H]1C(=O)N2C(C(=O)OC(C)(C)C)=C(COC(C)=O)/C(=C/c3ccccc3F)S(=O)(=O)[C@H]12 [drawing 36]
98.9	CO[C@H]1C(=O)N2C(C(=O)OC(C)(C)C)=C(COC(C)=O)/C(=C\c3ccsc3)S(=O)(=O)[C@H]12 [drawing 35]
